Measured values taken from PubChem BioAssay (NCI).
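Growth conditions: 96-well plates. Treatment: test compound, 48 hours, 5 concentrations. Analysis: linear interpolation between bracketing concentrations; unreached endpoints set to highest concentration. Definition used: TGI = concentration required for complete inhibition of growth.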

Tests used:
Test in all cases: NCI anticancer screen, dose series, 48 h
[1] = test system: CCRF-CEM leukemia
[2] = test system: SK-MEL-28 melanoma
[3] = test system: A498 renal
[4] = test system: 786-0 renal
[5] = test system: RPMI-8226 leukemia
[6] = test system: OVCAR-4 ovarian
[7] = test system: SK-MEL-2 melanoma
[8] = test system: A549 NSCLC
[9] = test system: BT-549 breast
[10] = test system: M14 melanoma
[11] = test system: NCI-H23 lung
[12] = test system: OVCAR-5 ovarian
[13] = test system: SK-MEL-5 melanoma
[14] = test system: UACC-257 melanoma
[15] = test system: PC-3 prostate
[16] = test system: OVCAR-8 ovarian
[17] = test system: IGROV1 ovarian
[18] = test system: TK-10 renal
[19] = test system: MDA-MB-435
[20] = test system: ACHN renal
[21] = test system: HL-60(TB) leukemia
[22] = test system: SNB-19 CNS
[23] = test system: NCI-H460 lung
[24] = test system: HCC-2998 colon
[25] = test system: SF-295 CNS
[26] = test system: HOP-62 NSCLC
[27] = test system: HOP-92 NSCLC
[28] = test system: T-47D breast
[29] = test system: DU-145 prostate
[30] = test system: EKVX NSCLC
[31] = test system: COLO 205 colon
[32] = test system: HCT-15 colon
[33] = test system: CAKI-1 renal
[34] = test system: UO-31 renal
[35] = test system: MDA-N
[36] = test system: SN12C renal
[37] = test system: HCT-116 colon
[38] = test system: SK-OV-3 ovarian
[39] = test system: NCI/ADR-RES ovarian
[40] = test system: RXF 393 renal
[41] = test system: KM12 colon
[42] = test system: U251 CNS
[43] = test system: LOX IMVI melanoma
[44] = test system: UACC-62 melanoma
[45] = test system: SNB-75 CNS
[46] = test system: NCI-H226 lung
[47] = test system: OVCAR-3 ovarian
[48] = test system: MCF7 breast
[49] = test system: SW-620 colon

Measured: TGI

CCOC(=O)CCSS(=O)(=O)C(F)(F)F
> 100 µM: all assays above
